Measurements reported in PubChem BioAssay (NCI).
“And” between values parts separate entries of the source, which are not always exact repeats. Identical values can stand only once.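 How tested: cells in 96-well plates exposed to compound for 48 hours at five concentrations. GI50 = concentration required for 50% inhibition of growth. Definition used: TGI = concentration required for complete inhibition of growth.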

Assays:
Assay in all cases: NCI tumour cell line growth inhibition, 48 h
SK-MEL-5 melanoma = test system: SK-MEL-5 melanoma
MDA-MB-435 = test system: MDA-MB-435
NCI-H23 lung = test system: NCI-H23 lung
OVCAR-8 ovarian = test system: OVCAR-8 ovarian
M19-MEL melanoma = test system: M19-MEL melanoma
P388 leukemia = test system: P388 leukemia
TK-10 renal = test system: TK-10 renal
HOP-18 NSCLC = test system: HOP-18 NSCLC
SF-268 CNS = test system: SF-268 CNS
LXFL 529 NSCLC = test system: LXFL 529 NSCLC
MALME-3M melanoma = test system: MALME-3M melanoma
HL-60(TB) leukemia = test system: HL-60(TB) leukemia
HCT-116 colon = test system: HCT-116 colon
RXF 393 renal = test system: RXF 393 renal
SF-295 CNS = test system: SF-295 CNS
MOLT-4 leukemia = test system: MOLT-4 leukemia
CCRF-CEM leukemia = test system: CCRF-CEM leukemia
SN12K1 renal = test system: SN12K1 renal

Row | SMILES | GI50 (SK-MEL-5 melanoma) [µM] | TGI (SK-MEL-5 melanoma) | GI50 (MDA-MB-435) [µM] | TGI (MDA-MB-435) | GI50 (NCI-H23 lung) | TGI (NCI-H23 lung) | GI50 (OVCAR-8 ovarian) | TGI (OVCAR-8 ovarian) | TGI (M19-MEL melanoma) | GI50 (TK-10 renal) [µM] | TGI (TK-10 renal) | TGI (HOP-18 NSCLC) | GI50 (SF-268 CNS) | TGI (SF-268 CNS) | GI50 (MALME-3M melanoma) | TGI (MALME-3M melanoma) | GI50 (HL-60(TB) leukemia) | TGI (HL-60(TB) leukemia) | GI50 (HCT-116 colon) | TGI (HCT-116 colon) | further results
1 | CCCCCCCCCCCC[C@@H](O)[C@H]1CC[C@H]([C@H](O)CCCC[C@H](O)CCCCC[C@@H](O)CC2=C[C@H](C)OC2=O)O1 | 0.275 | 7.16 µM and 2.21 µM | 2.26 | 5.43 µM and 12 µM | < 0.051 µM | 5.8 µM and 10.2 µM | 3.09 µM | 5.8 µM and 20.3 µM | 5.71 µM | 3.94 | 6.59 µM and 15.3 µM | 15.5 µM | 2.38 µM | 6.01 µM and 11.2 µM | 3.49 µM | 8.59 µM | 0.548 µM and < 0.0574 µM | 4.24 µM and 2.13 µM | 0.425 µM | 5.2 µM and 6.56 µM | TGI (P388 leukemia): 3.76 µM; TGI (LXFL 529 NSCLC): 10.8 µM; TGI (RXF 393 renal): 8.02 µM; TGI (SF-295 CNS): 5.31 µM and 8.02 µM; GI50 (MOLT-4 leukemia): 1.74 µM and 0.891 µM; TGI (MOLT-4 leukemia): 4.06 µM; GI50 (CCRF-CEM leukemia): 1.98 µM; TGI (CCRF-CEM leukemia): 7.58 µM
2 | CCN(CC)CCOc1cccc2nc3c(cc12)Cn1c-3cc2c(c1=O)COC(=O)C2(O)CC (centres undefined) | 1.08 | 6.31 µM | 12.2 | 28.2 µM | 0.506 µM and 0.87 µM | 4.19 µM and 4.86 µM | 1.24 µM and 1.47 µM | 30.8 µM and 15.4 µM | 18.5 µM and 17 µM | 26.7 | > 100 µM | 9.93 µM and 18.9 µM | 0.212 µM and 0.188 µM | 11.7 µM | 11.1 µM and 12.3 µM | 24.6 µM and 25 µM | 0.304 µM | 1.95 µM | 0.403 µM and 1.29 µM | 10.9 µM and 14.2 µM | GI50 (M19-MEL melanoma): 3.74 µM and 2.38 µM; GI50 (HOP-18 NSCLC): 2.34 µM and 2.65 µM; GI50 (RXF 393 renal): 1.4 µM and 10.6 µM; TGI (RXF 393 renal): 6.08 µM and 28.7 µM; GI50 (SF-295 CNS): 0.261 µM and 0.691 µM; TGI (SF-295 CNS): 5.19 µM and 9.4 µM; GI50 (MOLT-4 leukemia): 0.103 µM; GI50 (CCRF-CEM leukemia): 0.0125 µM and 0.0735 µM; TGI (CCRF-CEM leukemia): 0.791 µM; GI50 (SN12K1 renal): 1.03 µM and 1.18 µM; TGI (SN12K1 renal): 11.4 µM and 14.1 µM
